These compounds were tested against Syk (Homo sapiens, UniProt P43405) (assay: High Throughput Syk Biochemical Assay (KinEASE TR-FRET)). Conditions: TABLE D, 20 μM ATP, 1 μM biotinylated peptide, 0.015 nM Syk, 30 min at room temperature, read-out: IC50.
Method in brief: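 Compounds in DMSO dilution series were tested against Syk, which phosphorylates an XL665-tagged peptide. The phosphoproduct was bound by Eu-labelled phosphotyrosine antibody in a two-step endpoint format.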
In the case of C[C@@H](Oc1cc(-c2cccc(C(F)(F)F)n2)cc2ncn(C)c12)[C@H]1CNC(=O)C1 [(R)-4-((R)-1-((1-methyl-5-(6-(trifluoromethyl)pyridin-2-yl)-1H-benzo[d]imidazol-7-yl)oxy)ethyl)pyrrolidin-2-one], the IC50 is reported as 191 nM. In the case of COc1ccc(-c2cn3ncc(Cl)c3c(O[C@H](C)[C@H]3CNC(=O)C3)n2)cc1OC [(R)-4-((R)-1-((3-chloro-6-(3,4-dimethoxyphenyl)pyrazolo[1,5-a]pyrazin-4-yl)oxy)ethyl)pyrrolidin-2-one], the IC50 is reported as 0.321 nM. With COc1ccc(-c2cc(O[C@H](C)[C@H]3CNC(=O)C3)c3c(Cl)cnn3c2)cc1OC [(R)-4-((R)-1-((3-chloro-6-(3,4-dimethoxyphenyl)pyrazolo[1,5-a]pyridin-4-yl)oxy)ethyl)pyrrolidin-2-one] the IC50 was 1.07 nM. In the case of C[C@@H](Oc1cc(-c2ccc(N3CCOCC3)cc2)cn2ncc(Cl)c12)[C@H]1CNC(=O)C1 [(R)-4-((R)-1-((3-chloro-6-(4-morpholinophenyl)pyrazolo[1,5-a]pyridin-4-yl)oxy)ethyl)pyrrolidin-2-one], the IC50 is reported as 0.31 nM.

Same assay, conditions: table 'ALL NEW COMPOUNDS IN 2014', 20 μM ATP, 1 μM biotinylated peptide, 0.015 nM Syk, 30 min at room temperature, read-out: Syk IC50
Work on C[C@@H](Oc1cc(-c2ccc3c(c2)NCC3(C)C)cc2ncn(C3CC3)c12)[C@H]1CNC(=O)C1 [(R)-4-((R)-1-((1-cyclopropyl-5-(3,3-dimethylindolin-6-yl)-1H-benzo[d]imidazol-7-yl)oxy)ethyl)pyrrolidin-2-one] yielded an IC50 of 9.11 nM. With C[C@@H](Oc1cc(-c2ccc3c(c2)NCCO3)cc2ncn(C3CC3)c12)[C@H]1CNC(=O)C1 [(R)-4-((R)-1-((1-cyclopropyl-5-(3,4-dihydro-2H-benzo[b][1,4]oxazin-6-yl)-1H-benzo[d]imidazol-7-yl)oxy)ethyl)pyrrolidin-2-one] the IC50 was 2.56 nM. For C[C@@H](Oc1cc(-c2ccc3c(n2)NCCO3)cc2ncn(C3CC3)c12)[C@H]1CNC(=O)C1 [(R)-4-((R)-1-((1-cyclopropyl-5-(3,4-dihydro-2H-pyrido[3,2-b][1,4]oxazin-6-yl)-1H-benzo[d]imidazol-7-yl)oxy)ethyl)pyrrolidin-2-one], the IC50 was 4.76 nM. With CCOc1cc(-c2cc(O[C@H](C)[C@H]3CNC(=O)C3)c3c(c2)ncn3C2CC2)ccc1OC [(R)-4-((R)-1-((1-cyclopropyl-5-(3-ethoxy-4-methoxyphenyl)-1H-benzo[d]imidazol-7-yl)oxy)ethyl)pyrrolidin-2-one] the IC50 was 12.9 nM. Compound C[C@@H](Oc1cc(-c2ccc(N3CCN(C4COC4)CC3)c(F)c2)cc2ncn(C3CC3)c12)[C@H]1CNC(=O)C1 [(R)-4-((R)-1-((1-cyclopropyl-5-(3-fluoro-4-(4-(oxetan-3-yl)piperazin-1-yl)phenyl)-1H-benzo[d]imidazol-7-yl)oxy)ethyl)pyrrolidin-2-one] has an IC50 of 3.08 nM. In the case of Cc1cc(-c2cc(O[C@H](C)[C@H]3CNC(=O)C3)c3c(c2)ncn3C2CC2)ccc1N1CCN(C2COC2)CC1 [(R)-4-((R)-1-((1-cyclopropyl-5-(3-methyl-4-(4-(oxetan-3-yl)piperazin-1-yl)phenyl)-1H-benzo[d]imidazol-7-yl)oxy)ethyl)pyrrolidin-2-one], the IC50 is reported as 2.15 nM. Compound Cc1nc(-c2cc(O[C@H](C)[C@H]3CNC(=O)C3)c3c(c2)ncn3C2CC2)sc1C [(R)-4-((R)-1-((1-cyclopropyl-5-(4,5-dimethylthiazol-2-yl)-1H-benzo[d]imidazol-7-yl)oxy)ethyl)pyrrolidin-2-one] has an IC50 of 1.41 nM. COc1cc(-c2cc(O[C@H](C)[C@H]3CNC(=O)C3)c3c(c2)ncn3C2CC2)ccc1OC(F)F [(R)-4-((R)-1-((1-cyclopropyl-5-(4-(difluoromethoxy)-3-methoxyphenyl)-1H-benzo[d]imidazol-7-yl)oxy)ethyl)pyrrolidin-2-one] showed an IC50 of 23.1 nM. C[C@@H](Oc1cc(-c2ccc(N3CCN(C4COC4)CC3)cn2)cc2ncn(C3CC3)c12)[C@H]1CNC(=O)C1 [(R)-4-((R)-1-((1-cyclopropyl-5-(5-(4-(oxetan-3-yl)piperazin-1-yl)pyridin-2-yl)-1H-benzo[d]imidazol-7-yl)oxy)ethyl)pyrrolidin-2-one] gave an IC50 of 4.72 nM. C[C@@H](Oc1cc(-c2ccc(N3CCC(C4COC4)CC3)cn2)cc2ncn(C3CC3)c12)[C@H]1CNC(=O)C1 [(R)-4-((R)-1-((1-cyclopropyl-5-(5-(4-(oxetan-3-yl)piperidin-1-yl)pyridin-2-yl)-1H-benzo[d]imidazol-7-yl)oxy)ethyl)pyrrolidin-2-one] was tested, and the IC50 was 4.65 nM. C[C@@H](Oc1cc(-c2ccc(N3CCC(N4CCOCC4)CC3)cn2)cc2ncn(C3CC3)c12)[C@H]1CNC(=O)C1 [(R)-4-((R)-1-((1-cyclopropyl-5-(5-(4-morpholinopiperidin-1-yl)pyridin-2-yl)-1H-benzo[d]imidazol-7-yl)oxy)ethyl)pyrrolidin-2-one] gave an IC50 of 6.85 nM. Compound Cc1nnc(-c2cc(O[C@H](C)[C@H]3CNC(=O)C3)c3c(c2)ncn3C2CC2)s1 [(R)-4-((R)-1-((1-cyclopropyl-5-(5-methyl-1,3,4-thiadiazol-2-yl)-1H-benzo[d]imidazol-7-yl)oxy)ethyl)pyrrolidin-2-one] has an IC50 of 5.45 nM. Work on Cc1cnc(-c2cc(O[C@H](C)[C@H]3CNC(=O)C3)c3c(c2)ncn3C2CC2)s1 [(R)-4-((R)-1-((1-cyclopropyl-5-(5-methylthiazol-2-yl)-1H-benzo[d]imidazol-7-yl)oxy)ethyl)pyrrolidin-2-one] yielded an IC50 of 1.73 nM. C[C@@H](Oc1cc(-c2ccc(N3CCN(C4COC4)CC3)nn2)cc2ncn(C3CC3)c12)[C@H]1CNC(=O)C1 [(R)-4-((R)-1-((1-cyclopropyl-5-(6-(4-(oxetan-3-yl)piperazin-1-yl)pyridazin-3-yl)-1H-benzo[d]imidazol-7-yl)oxy)ethyl)pyrrolidin-2-one] gave an IC50 of 11.6 nM. C[C@@H](Oc1cc(-c2ccc(N3CCN(C4COC4)CC3)nc2)cc2ncn(C3CC3)c12)[C@H]1CNC(=O)C1 [(R)-4-((R)-1-((1-cyclopropyl-5-(6-(4-(oxetan-3-yl)piperazin-1-yl)pyridin-3-yl)-1H-benzo[d]imidazol-7-yl)oxy)ethyl)pyrrolidin-2-one] was tested, and the IC50 was 7.38 nM. Compound C[C@@H](Oc1cc(-c2cnccn2)cc2ncn(C3CC3)c12)[C@H]1CNC(=O)C1 [(R)-4-((R)-1-((1-cyclopropyl-5-(pyrazin-2-yl)-1H-benzo[d]imidazol-7-yl)oxy)ethyl)pyrrolidin-2-one] has an IC50 of 66.7 nM. C[C@@H](Oc1cc(-c2ccccn2)cc2ncn(C3CC3)c12)[C@H]1CNC(=O)C1 [(R)-4-((R)-1-((1-cyclopropyl-5-(pyridin-2-yl)-1H-benzo[d]imidazol-7-yl)oxy)ethyl)pyrrolidin-2-one] showed an IC50 of 10.6 nM. Work on C[C@@H](Oc1cc(-c2ccncn2)cc2ncn(C3CC3)c12)[C@H]1CNC(=O)C1 [(R)-4-((R)-1-((1-cyclopropyl-5-(pyrimidin-4-yl)-1H-benzo[d]imidazol-7-yl)oxy)ethyl)pyrrolidin-2-one] yielded an IC50 of 24.6 nM. With C[C@@H](Oc1cc(-c2nccs2)cc2ncn(C3CC3)c12)[C@H]1CNC(=O)C1 [(R)-4-((R)-1-((1-cyclopropyl-5-(thiazol-2-yl)-1H-benzo[d]imidazol-7-yl)oxy)ethyl)pyrrolidin-2-one] the IC50 was 9.4 nM. Work on C[C@@H](Oc1cc(-c2ccccc2)cc2ncn(C3CC3)c12)[C@H]1CNC(=O)C1 [(R)-4-((R)-1-((1-cyclopropyl-5-phenyl-1H-benzo[d]imidazol-7-yl)oxy)ethyl)pyrrolidin-2-one] yielded an IC50 of 18 nM. C[C@@H](Oc1nc(-c2ccc(N3CCN(C4COC4)CC3)cc2)cc2ncn(CCO)c12)[C@H]1CNC(=O)C1 [(R)-4-((R)-1-((3-(2-hydroxyethyl)-6-(4-(4-(oxetan-3-yl)piperazin-1-yl)phenyl)-3H-imidazo[4,5-c]pyridin-4-yl)oxy)ethyl)pyrrolidin-2-one] showed an IC50 of 135 nM. For C[C@@H](Oc1nc(-c2ccc(N3CCN(C4COC4)CC3)nc2)cc2ncn(C(F)F)c12)[C@H]1CNC(=O)C1 [(R)-4-((R)-1-((3-(difluoromethyl)-6-(6-(4-(oxetan-3-yl)piperazin-1-yl)pyridin-3-yl)-3H-imidazo[4,5-c]pyridin-4-yl)oxy)ethyl)pyrrolidin-2-one], the IC50 was 2.9 nM. Cc1nn(C)c2ccc(-c3cc4ncn(C5CC5)c4c(O[C@H](C)[C@H]4CNC(=O)C4)n3)cc12 [(R)-4-((R)-1-((3-cyclopropyl-6-(1,3-dimethyl-1H-indazol-5-yl)-3H-imidazo[4,5-c]pyridin-4-yl)oxy)ethyl)pyrrolidin-2-one] gave an IC50 of 3.46 nM. C[C@@H](Oc1nc(-c2ccc3c(cnn3CC(F)F)c2)cc2ncn(C3CC3)c12)[C@H]1CNC(=O)C1 [(R)-4-((R)-1-((3-cyclopropyl-6-(1-(2,2-difluoroethyl)-1H-indazol-5-yl)-3H-imidazo[4,5-c]pyridin-4-yl)oxy)ethyl)pyrrolidin-2-one] showed an IC50 of 1.81 nM. For C[C@@H](Oc1nc(-c2ccc3c(c2)NCCN3C)cc2ncn(C3CC3)c12)[C@H]1CNC(=O)C1 [(R)-4-((R)-1-((3-cyclopropyl-6-(1-methyl-1,2,3,4-tetrahydroquinoxalin-6-yl)-3H-imidazo[4,5-c]pyridin-4-yl)oxy)ethyl)pyrrolidin-2-one], the IC50 was 2.25 nM. In the case of C[C@@H](Oc1nc(-c2ccc3c(c2)OCCO3)cc2ncn(C3CC3)c12)[C@H]1CNC(=O)C1 [(R)-4-((R)-1-((3-cyclopropyl-6-(2,3-dihydrobenzo[b][1,4]dioxin-6-yl)-3H-imidazo[4,5-c]pyridin-4-yl)oxy)ethyl)pyrrolidin-2-one], the IC50 is reported as 5.52 nM. C[C@@H](Oc1nc(-c2cnc(C(C)(C)O)s2)cc2ncn(C3CC3)c12)[C@H]1CNC(=O)C1 [(R)-4-((R)-1-((3-cyclopropyl-6-(2-(2-hydroxypropan-2-yl)thiazol-5-yl)-3H-imidazo[4,5-c]pyridin-4-yl)oxy)ethyl)pyrrolidin-2-one] was tested, and the IC50 was 7.54 nM. With C[C@@H](Oc1nc(-c2cnc(C3CCOCC3)s2)cc2ncn(C3CC3)c12)[C@H]1CNC(=O)C1 [(R)-4-((R)-1-((3-cyclopropyl-6-(2-(tetrahydro-2H-pyran-4-yl)thiazol-5-yl)-3H-imidazo[4,5-c]pyridin-4-yl)oxy)ethyl)pyrrolidin-2-one] the IC50 was 3.54 nM.
